Series [1] can be described thus: Stability testing, HPLC evaluation of stored samples. Format: physicochemical. The conditions noted are these: 25° C. and 60% relative humidity. Here is the method: Samples of MB-102 were prepared and stored at 25° C. and 60% relative humidity for 24 months. HPLC evaluation of each sample was performed at various time points to assess the stability of the samples.

Series [2] in a line: Clinical pharmacokinetic study of MB-102 given intravenously: plasma and urine collection. The series is classed as in vivo, human. The conditions noted are these: for half-life: plasma. On the procedure:
In a clinical study, 60 human patients were administered MB-102 ((2R,2′R)-2,2′-((3,6-diaminopyrazine-2,5-dicarbonyl)bis(azanediyl))bis(3-hydroxypropanoic acid)) prepared in Example 12) intravenously. Blood and urine were collected in addition to the methods and techniques disclosed herein. Standard pharmacokinetic data was collected and comparison was made between the methods and techniques disclosed herein to Omnipaque® (iohexol), a known contrast agent used for GFR determination.
Shown in FIGS. 3A to 3D are data collected from the 60 human patients tested with MB-102. Plasma pharmacokinetic data was collected and analyzed using methods known in the art and compared to the data measured using the methods and techniques disclosed herein.
FIGS. 3A to 3D illustrate a two compartment pharmacokinetic model for the elimination of MB-102. The model is consistent for patients regardless of their GFR values. FIG. 3A is for patients having normal kidney function having a measured GFR (mGFR) of 120 mL/min. FIG. 3B is for patients having a mGFR of 81 mL/min. FIG. 3C is for patients having a mGFR of 28 mL/min. FIG. 3D is for patients having a mGFR of 25 mL/min. The first compartment in the two compartment model is the vascular to tissue equilibrium while the second compartment illustrates renal excretion only. On average, the time for equilibration is about one hour, and is subject dependent.
As part of the clinical 1 study for MB-102, urine was collected from patients for 12 hours to determine the amount recovered and degree of secondary metabolism. […] For patients having normal, stage 1 and stage 2 renal function, 12 hour collection time was sufficient for greater than 99% recovery of MB-102. In view of the pharmacokinetic data and the plasma half-life determination, less than complete collection is readily understood for patients having more serious renal function impairment.
Shown in FIG. 6 is the plasma concentration half-life of MB-102 for patients having either normal kidney function, stage 1 renal impairment, stage 2 renal impairment, stage 3 renal impairment, or stage 4 renal impairment.

Where [3] appears, read: patients having a mGFR value below 60, 12 hours.

Read-outs that look alike come from different tables or passages of the source. Some results are limits rather than exact numbers.

`Nc1nc(C(=O)N[C@H](CO)C(=O)O)c(N)nc1C(=O)N[C@H](CO)C(=O)O` [MB-102]: the “Purity (HPLC)” value in series [1] (0 months) is listed as over 99%; in series [1] (6 months), over 99%; in series [1] (12 months) it was 98.9%; in series [1] (18 months), 98.3%; in series [1] (24 months), 97.8%. In addition, the “time for equilibration (vascular to tissue equilibrium)” value in series [2] (human patients, intravenous, on average, subject dependent) is on record as “about one”. Besides, the half-life (usually the time needed for the level to fall by half in the phase considered) in series [2] (human, intravenous, stage 2 and 3 groups (so in the source), read-out: average plasma half-life (converted)) was 2.5 h; in series [2] (human, intravenous, stage 3 renal impairment, read-out: plasma half-life (converted)) it was 4 h; in series [2] (human, intravenous, stage 4 renal impairment, read-out: plasma half-life (converted)), 8 h. For the same compound, the dose excreted in series [2] (human, urine, intravenous, patients having normal, stage 1 and stage 2 renal function, 12 hour collection time, read-out: recovery from urine) was over 99%. Further, in series [2] (normal renal function group), the average plasma half-life entry is “two”. In addition, the “degree of secondary metabolism (urine)” value in series [2] (setting [3]) was “unmetabolized”. Also, the recovery from urine entry in series [2] (setting [3]) is “a lower percentage was recovered”. For the same compound, the “recovered unmetabolized from urine” value in series [2] (patients having an eGFR greater than 60, after 12 hours) is on record as “greater than 99%”.

The record behind these values is patent US11590244B2, “Methods for renal function determination” (MediBeacon Inc., priority 2017, dated 2023).
